The values below come from PubChem BioAssay (NCI).

Several values for one entry are separate records, joined by “and”; a condition that tells them apart may be missing. Equal values may be shown once.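 Test compounds were applied to cells in 96-well plates for 48 hours at 5 doses. GI50 marks 50% less growth. TGI is the concentration that stops growth completely.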

Test systems include CCRF-CEM leukemia; EKVX NSCLC; HCT-15 colon; HOP-62 NSCLC; IGROV1 ovarian; OVCAR-4 ovarian; OVCAR-8 ovarian; PC-3 prostate; SK-MEL-28 melanoma; SK-MEL-5 melanoma.
What all share (test): NCI-60 cell line screen, 48 h

For the molecule `NC(N)=NN=c1c(=O)c2ccccc2c1=O`, the GI50 in the assay on CCRF-CEM leukemia was 2.14 µM; with EKVX NSCLC, 18.7 µM; in the assay with HCT-15 colon it was 1.88 µM; in the assay with HOP-62 NSCLC it was 9 µM; in the assay with IGROV1 ovarian it was 17.2 µM; with OVCAR-4 ovarian, 12.6 µM. For the same molecule, the GI50 was 10.1 µM in the assay on OVCAR-8 ovarian, 12.7 µM in the assay on PC-3 prostate, 2 µM with SK-MEL-28 melanoma and 2.93 µM with SK-MEL-5 melanoma. The TGI was 5.27 µM in the assay on CCRF-CEM leukemia; 34.8 µM with EKVX NSCLC; 3.84 µM in the assay on HCT-15 colon; 21 µM in the assay on HOP-62 NSCLC; 35.3 µM with IGROV1 ovarian; 25.2 µM in the assay with OVCAR-4 ovarian. Besides, the TGI in the assay with OVCAR-8 ovarian stood at 22.5 µM; in the assay on PC-3 prostate, 29.8 µM; with SK-MEL-28 melanoma it was 3.88 µM; in the assay with SK-MEL-5 melanoma it was 11.7 µM.
As for `O=C1/C(=C/c2cccnc2)SC(=S)N1Cc1ccco1`, the TGI is 14.5 µM with CCRF-CEM leukemia; above 100 µM in the assay on EKVX NSCLC; above 100 µM in the assay with HCT-15 colon; 27.1 µM in the assay on HOP-62 NSCLC; above 42.3 µM with IGROV1 ovarian; 77.6 µM in the assay with OVCAR-4 ovarian. The TGI is above 48.5 µM in the assay with OVCAR-8 ovarian, above 36.6 µM in the assay with PC-3 prostate, above 100 µM with SK-MEL-28 melanoma and above 51 µM with SK-MEL-5 melanoma.
With `C[C@@H](Nc1nc(N[C@H](C)C(F)(F)F)nc(-c2cccc(Cl)n2)n1)C(F)(F)F`, the GI50 was above 100 µM in the assay on CCRF-CEM leukemia; 70.7 µM in the assay on EKVX NSCLC; above 100 µM in the assay on HCT-15 colon; 27.5 µM with HOP-62 NSCLC; 52.5 µM with IGROV1 ovarian; 23.3 µM in the assay on OVCAR-4 ovarian. Moreover, the GI50 in the assay on OVCAR-8 ovarian was 31.3 µM; in the assay on PC-3 prostate, 45.4 µM; in the assay on SK-MEL-28 melanoma, 72.5 µM; in the assay with SK-MEL-5 melanoma, 51.2 µM. Besides, the TGI in the assay on CCRF-CEM leukemia is above 100 µM; in the assay with EKVX NSCLC, above 100 µM; in the assay on HCT-15 colon it was above 100 µM; in the assay on HOP-62 NSCLC, above 100 µM; with IGROV1 ovarian, above 100 µM; in the assay with OVCAR-4 ovarian, 96.9 µM. In addition, the TGI in the assay on OVCAR-8 ovarian, in the assay on PC-3 prostate, with SK-MEL-28 melanoma and in the assay with SK-MEL-5 melanoma was above 100 µM in each case.
With `CC[C@@]1(O)C(=O)OCc2c1cc1n(c2=O)Cc2cc3cc(Cl)ccc3nc2-1`, the TGI with CCRF-CEM leukemia is above 100 µM; in the assay with EKVX NSCLC, 5.73 µM and 4.9 µM; in the assay with HCT-15 colon, 10.5 µM; with IGROV1 ovarian it was 1.85 µM and 2.34 µM; with OVCAR-8 ovarian, 0.109 µM and 0.203 µM; in the assay with SK-MEL-28 melanoma it was 4.52 µM and 8.65 µM. Besides, in the assay on SK-MEL-5 melanoma, the TGI was 0.0501 µM and 0.0636 µM. For the same molecule, the GI50 was 0.282 µM and 0.302 µM in the assay on EKVX NSCLC; 0.0559 µM and 0.106 µM in the assay on HCT-15 colon; below 0.001 µM with HOP-62 NSCLC; 0.0327 µM and 0.162 µM with IGROV1 ovarian; 0.125 µM and 0.249 µM in the assay on OVCAR-4 ovarian; 0.00117 µM and 0.0112 µM with OVCAR-8 ovarian. The GI50 was 0.0427 µM with PC-3 prostate; 0.0542 µM and 0.0355 µM with SK-MEL-28 melanoma; 0.0082 µM and 0.0181 µM in the assay with SK-MEL-5 melanoma.
Turning to `CNC(=O)c1cc(Oc2ccc3nc(NC(=O)Nc4ccc(CN5CCOCC5)c(C(F)(F)F)c4)sc3c2)ccn1`, the GI50 in the assay on CCRF-CEM leukemia was 2.73 µM; with EKVX NSCLC, 2.1 µM; in the assay on HCT-15 colon, 2.08 µM; with HOP-62 NSCLC, 2.82 µM; in the assay on IGROV1 ovarian it was 2.77 µM; in the assay with OVCAR-4 ovarian, 1.72 µM. The GI50 in the assay on OVCAR-8 ovarian was 2.63 µM; in the assay with PC-3 prostate it was 2.04 µM; with SK-MEL-28 melanoma it was 1.8 µM; in the assay on SK-MEL-5 melanoma it was 1.01 µM. Also, the TGI with CCRF-CEM leukemia was above 100 µM; with EKVX NSCLC, 7.55 µM; in the assay on HCT-15 colon it was 7.09 µM; with HOP-62 NSCLC it was 10.1 µM; with IGROV1 ovarian, 10.5 µM; in the assay with OVCAR-4 ovarian, 5.64 µM. Further, the TGI in the assay with OVCAR-8 ovarian was found to be 7.71 µM; in the assay on PC-3 prostate, 6.22 µM; in the assay with SK-MEL-28 melanoma, 4.29 µM; in the assay with SK-MEL-5 melanoma, 2.22 µM.
Turning to `C[C@H]1CCC/C=C/C2CC(OC(=O)CN(C)C)CC2C(OC(=O)CN(C)C)/C=C/C(=O)O1` (stereo not given in full), the GI50 was 0.647 µM in the assay on CCRF-CEM leukemia; 0.558 µM with EKVX NSCLC; 0.272 µM in the assay with HCT-15 colon; 2.51 µM with HOP-62 NSCLC; 1.71 µM in the assay with IGROV1 ovarian; 0.349 µM in the assay on OVCAR-4 ovarian. The GI50 in the assay with OVCAR-8 ovarian was 0.308 µM; in the assay on PC-3 prostate, 0.261 µM; with SK-MEL-28 melanoma, 0.472 µM; with SK-MEL-5 melanoma it was 0.0982 µM. In addition, the TGI in the assay with CCRF-CEM leukemia is above 40.6 µM; with EKVX NSCLC it was above 87.8 µM; in the assay with HCT-15 colon, above 32.4 µM; with HOP-62 NSCLC, 23.2 µM; in the assay with IGROV1 ovarian it was 34.4 µM; with OVCAR-4 ovarian, 34.2 µM. Also, the TGI is above 22.9 µM in the assay on OVCAR-8 ovarian, above 100 µM in the assay with PC-3 prostate, above 100 µM in the assay with SK-MEL-28 melanoma and 0.243 µM with SK-MEL-5 melanoma.
Take `CC1(C)OB(c2ccc(N(CCOS(C)(=O)=O)CCOS(C)(=O)=O)cc2)OC1(C)C`: the GI50 is 1.98 µM in the assay on CCRF-CEM leukemia; 23.4 µM in the assay with EKVX NSCLC; 15.6 µM in the assay with HCT-15 colon; 7.92 µM in the assay on HOP-62 NSCLC; 4.89 µM with IGROV1 ovarian; 32.9 µM in the assay with OVCAR-4 ovarian. Further, the GI50 was 21.7 µM in the assay with OVCAR-8 ovarian, 15.6 µM with PC-3 prostate, 34 µM with SK-MEL-28 melanoma and 16.2 µM with SK-MEL-5 melanoma. In addition, the TGI in the assay with CCRF-CEM leukemia was above 39.6 µM; in the assay with EKVX NSCLC, 58.7 µM; in the assay with HCT-15 colon it was 41 µM; in the assay on HOP-62 NSCLC it was 23.4 µM; with IGROV1 ovarian it was 35.4 µM; in the assay with OVCAR-4 ovarian, above 86.6 µM. In addition, the TGI was above 92.3 µM in the assay on OVCAR-8 ovarian, above 79.7 µM in the assay with PC-3 prostate, above 83.7 µM with SK-MEL-28 melanoma and 38.2 µM in the assay on SK-MEL-5 melanoma.
`Cc1nc2ccccn2c1NC(=O)NN1C(=O)CSC1c1ccc(Cl)cc1` (stereo not given): the TGI in the assay on CCRF-CEM leukemia was 0.012 µM; with EKVX NSCLC, above 100 µM; with HCT-15 colon it was above 100 µM; in the assay on HOP-62 NSCLC, above 100 µM; with IGROV1 ovarian, above 100 µM; in the assay with OVCAR-4 ovarian, above 100 µM. The TGI in the assay with OVCAR-8 ovarian, in the assay on PC-3 prostate, in the assay on SK-MEL-28 melanoma and with SK-MEL-5 melanoma was above 100 µM each time. For the same molecule, the GI50 with EKVX NSCLC, in the assay with HCT-15 colon, in the assay with HOP-62 NSCLC, in the assay on IGROV1 ovarian, with OVCAR-4 ovarian and in the assay with OVCAR-8 ovarian was above 100 µM in each case. Moreover, the GI50 with PC-3 prostate, in the assay with SK-MEL-28 melanoma and in the assay with SK-MEL-5 melanoma was above 100 µM each time.
